# Earlier results as cited in paper PMC2962921 (Chembiochem : a European journal of chemical biology, 2008).
# Read-outs that look alike come from different tables or passages of the source.
# Molecular target: Gαi1*GDP
"Kd (R6A peptide, competitor in the equilibrium competition) [nM]",Kd (binding to heterotrimeric inhibitory G protein Gαi1*GDP) [nM],Sequence
60,,MSQTKRLDDQLYWWEYL [R6A]
,200,DKLYWWEFL
